Experimental data from patent US20160223562A1, “Method for Determining the Concentration of a Peptide” (JPT Peptide Technologies GmbH, priority 2010, published 2016).
Square brackets hold non-standard residues; d marks the D form. Peptide text beside a SMILES is read from it. Tyr(3-NO2) = N[C@@H](Cc1ccc(O)c([N+](=O)[O-])c1)C(=O)O

Experiments:
Trypsin [1] = target: T1, Trypsin (Sus scrofa, UniProt P00761); assay: Trypsin cleavage of C-terminal quantification tag -SA-nitroTyr-G from peptides, LC-MS with UV detection at 350 nm; assay type: biochemical; conditions: for Percent Cleavage of Tag [by UV at 350 nm]: after reduction and alkylation, trypsin enzyme/substrate 1:50 over night at RT
T1 construct: purchased Promega Corporation V511
T1 sequence (P00761 9-231): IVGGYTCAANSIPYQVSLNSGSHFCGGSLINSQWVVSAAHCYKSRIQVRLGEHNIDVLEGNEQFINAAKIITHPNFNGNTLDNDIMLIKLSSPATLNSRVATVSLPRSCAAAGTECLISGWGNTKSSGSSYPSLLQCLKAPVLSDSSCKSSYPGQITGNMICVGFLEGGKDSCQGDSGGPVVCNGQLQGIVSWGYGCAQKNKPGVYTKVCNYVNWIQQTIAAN
Experimental: 23 peptides carrying the C-terminal quantification-tag-SA-nitroTyr-G-OH (SEQ ID NO:2) were synthesized by Fmoc-based solid phase peptide synthesis and purified by HPLC. Each peptide was subjected to the following trypsin cleavage protocol:
(§1) Trypsin Activation: Trypsin (20 μg, sequencing grade modified trypsin, Promega Corporation, Madison, Wis., USA, catalogue no. V511, specific activity 16.965 u/mg) was dissolved in Trypsin resuspension buffer (200 μL, Promega, catalogue no. V542A, ingredient 50 mM acetic acid) and incubated for 15 min at 37° C.
(§2) Reduction and alkylation: The peptide (approx. 0.05 mg) was dissolved in 1 M urea and 100 mM fresh ammonium hydrogen carbonate (300 μL). TCEP (Tris(2-carboxyethyl) phosphine hydrochloride, 0.2 M, 7.5 μL, final concentration 5 mM) was added and the solution incubated at 37° C. for 1 h. After addition of iodoacetamide (0.5 M, 6.0 μL, final concentration 10 mM) the solution was incubated at RT in the dark for another 30 min. Digestion: The sample was digested with activated Trypsin solution (10 μL per well, 1.0 μg, resulting enzyme/substrate ratio 1:50) over night at RT. To stop the digestion, HCl (2 M, 8 μL final concentration 50 mM) and TFA (3.2 μL, final concentration 1%, pH<2) were added. Finally, the sample was analyzed by LC-MS at 350 nm.

Trypsin [2] = target: T1, Trypsin; assay: Trypsin cleavage of N-terminal quantification tag Ac-nitroTyr-SGK- from peptides, LC-MS with UV detection at 350 nm; assay type: biochemical; conditions: for Kusebauch 24 h, RT: Percent Cleavage of Tag [by UV350 - Peptide-Tag vs. Tag]: trypsin protocol of example 9, 24 h
Experimental: as §1, §2
38 peptides carrying the N-terminal quantification-tag Ac-nitroTyr-SGK-(SEQ ID NO:32) were synthesized by SPOT synthesis (Table 3). The peptide sequences are based on two different amino acid sequences, which in each case contain 19 different amino acids N-terminally attached to lysine (the 20 naturally occurring amino acids except cysteine).
All peptides were subjected to the same trypsin cleavage protocol as described in example 9. It is apparent that the quantification tag is efficiently cleaved (>99%) in nearly all cases.

Structure (SMILES) | Percent Cleavage of Tag [by UV at 350 nm] (Trypsin [1]) | cleavage efficiency (LC-MS and UV detection at 350 nm) (Trypsin [1]; trypsin over night at RT) | Kusebauch 24 h, RT: Percent Cleavage of Tag [by UV350 - Peptide-Tag vs. Tag] (Trypsin [2]) | cleavage efficiency in words (Trypsin [2]; trypsin)
CC(C)C[C@H](N)C(=O)N1CCC[C@H]1C(=O)N[C@@H](CC(N)=O)C(=O)NCC(=O)N[C@H](C(=O)N[C@@H](Cc1ccccc1)C(=O)N[C@H](C(=O)N1CCC[C@H]1C(=O)N[C@@H](CC(=O)O)C(=O)N[C@@H](Cc1ccccc1)C(=O)N[C@@H](CCC(N)=O)C(=O)N[C@@H](CCC(=O)O)C(=O)N[C@@H](Cc1ccccc1)C(=O)N[C@H](C(=O)N[C@@H](CC(N)=O)C(=O)N[C@@H](CCCCN)C(=O)N[C@@H](CO)C(=O)N[C@@H](C)C(=O)N[C@@H](Cc1ccc(O)c([N+](=O)[O-])c1)C(=O)NCC(=O)O)C(C)C)[C@@H](C)O)C(C)C [LPNGVFTPDFQEFVN-K-SA-nitroTyr-G] (H-LPNGVFTPDFQEFVNKSA[Tyr(3-NO2)]G-OH) | 95.4% | – | – | –
CC[C@H](C)[C@H](NC(=O)[C@H](Cc1ccccc1)NC(=O)[C@H](Cc1ccc(O)cc1)NC(=O)[C@H](Cc1c[nH]cn1)NC(=O)[C@@H](NC(=O)[C@H](Cc1ccc(O)cc1)NC(=O)[C@H](CCCCN)NC(=O)CNC(=O)[C@H](CO)NC(=O)[C@H](Cc1ccc(O)c([N+](=O)[O-])c1)NC(C)=O)[C@@H](C)O)C(=O)N[C@@H](CC(=O)O)C(=O)N[C@@H](CC(C)C)C(=O)N[C@@H](CC(N)=O)C(=O)N[C@@H](CCCCN)C(=O)O [Peptide 20, Ac-nitroTyr-SGKYTHYFIDLN-K-OH] (Ac-[Tyr(3-NO2)]SGKYTHYFIDLNK-OH) | 74.7% | 75% | 100.0% | –
CC[C@H](C)[C@H](NC(=O)[C@H](Cc1ccccc1)NC(=O)[C@H](Cc1ccc(O)cc1)NC(=O)[C@H](Cc1c[nH]cn1)NC(=O)[C@@H](NC(=O)[C@H](CC(N)=O)NC(=O)[C@H](CCCCN)NC(=O)CNC(=O)[C@H](CO)NC(=O)[C@H](Cc1ccc(O)c([N+](=O)[O-])c1)NC(C)=O)[C@@H](C)O)C(=O)N[C@@H](CC(=O)O)C(=O)N[C@@H](CC(C)C)C(=O)N[C@@H](CC(N)=O)C(=O)N[C@@H](CCCCN)C(=O)O [Peptide 12, Ac-nitroTyr-SGKNTHYFIDLN-K-OH] (Ac-[Tyr(3-NO2)]SGKNTHYFIDLNK-OH) | 100% | – | 100.0% | –
CC[C@H](C)[C@H](NC(=O)[C@H](CC(C)C)NC(=O)[C@@H](N)CCC(=O)O)C(=O)N[C@@H](Cc1ccccc1)C(=O)N[C@@H](CCC(N)=O)C(=O)N[C@@H](CCC(=O)O)C(=O)N[C@H](C(=O)N[C@@H](C)C(=O)N[C@@H](CCCNC(=N)N)C(=O)N[C@@H](CO)C(=O)N[C@@H](C)C(=O)N[C@@H](Cc1ccc(O)c([N+](=O)[O-])c1)C(=O)NCC(=O)O)[C@@H](C)O [Peptide 22] (H-ELIFQETARSA[Tyr(3-NO2)]G-OH) | 100% | – | – | –
CC[C@H](C)[C@H](NC(=O)[C@@H](NC(=O)[C@@H](N)CO)C(C)C)C(=O)N[C@@H](CC(=O)O)C(=O)N1CCC[C@H]1C(=O)N[C@H](C(=O)N1CCC[C@H]1C(=O)N[C@@H](C)C(=O)N1CCC[C@H]1C(=O)N[C@H](C(=O)NCC(=O)N[C@@H](CC(=O)O)C(=O)N[C@@H](CO)C(=O)N[C@@H](Cc1c[nH]cn1)C(=O)N[C@H](C(=O)N[C@@H](CC(=O)O)C(=O)NCC(=O)N[C@@H](C)C(=O)N[C@@H](C)C(=O)N[C@@H](CCCCN)C(=O)N[C@@H](CO)C(=O)N[C@@H](C)C(=O)N[C@@H](Cc1ccc(O)c([N+](=O)[O-])c1)C(=O)NCC(=O)O)C(C)C)C(C)C)C(C)C [Peptide 2] (H-SVIDPVPAPVGDSHVDGAAKSA[Tyr(3-NO2)]G-OH) | 100% | – | – | –
CC[C@H](C)[C@H](NC(=O)[C@H](Cc1ccccc1)NC(=O)[C@H](Cc1ccc(O)cc1)NC(=O)[C@H](Cc1c[nH]cn1)NC(=O)[C@@H](NC(=O)[C@H](CCCNC(=N)N)NC(=O)[C@H](CCCCN)NC(=O)CNC(=O)[C@H](CO)NC(=O)[C@H](Cc1ccc(O)c([N+](=O)[O-])c1)NC(C)=O)[C@@H](C)O)C(=O)N[C@@H](CC(=O)O)C(=O)N[C@@H](CC(C)C)C(=O)N[C@@H](CC(N)=O)C(=O)N[C@@H](CCCCN)C(=O)O [Peptide 15, Ac-nitroTyr-SGKRTHYFIDLN-K-OH] (Ac-[Tyr(3-NO2)]SGKRTHYFIDLNK-OH) | 100% | – | 100.0% | good cleavage efficiencies
CC[C@H](C)[C@H](NC(=O)[C@H](Cc1ccccc1)NC(=O)[C@H](Cc1ccc(O)cc1)NC(=O)[C@H](Cc1c[nH]cn1)NC(=O)[C@@H](NC(=O)[C@H](CO)NC(=O)[C@H](CCCCN)NC(=O)CNC(=O)[C@H](CO)NC(=O)[C@H](Cc1ccc(O)c([N+](=O)[O-])c1)NC(C)=O)[C@@H](C)O)C(=O)N[C@@H](CC(=O)O)C(=O)N[C@@H](CC(C)C)C(=O)N[C@@H](CC(N)=O)C(=O)N[C@@H](CCCCN)C(=O)O [Peptide 16, Ac-nitroTyr-SGKSTHYFIDLN-K-OH] (Ac-[Tyr(3-NO2)]SGKSTHYFIDLNK-OH) | 100% | – | 100.0% | –
CC[C@H](C)[C@H](NC(=O)[C@H](Cc1ccccc1)NC(=O)[C@H](Cc1ccc(O)cc1)NC(=O)[C@H](Cc1c[nH]cn1)NC(=O)[C@@H](NC(=O)[C@H](CC(C)C)NC(=O)[C@H](CCCCN)NC(=O)CNC(=O)[C@H](CO)NC(=O)[C@H](Cc1ccc(O)c([N+](=O)[O-])c1)NC(C)=O)[C@@H](C)O)C(=O)N[C@@H](CC(=O)O)C(=O)N[C@@H](CC(C)C)C(=O)N[C@@H](CC(N)=O)C(=O)N[C@@H](CCCCN)C(=O)O [Peptide 10, Ac-nitroTyr-SGKLTHYFIDLN-K-OH] (Ac-[Tyr(3-NO2)]SGKLTHYFIDLNK-OH) | 100% | – | 100.0% | –
CC[C@H](C)[C@H](NC(=O)[C@H](Cc1ccccc1)NC(=O)[C@H](Cc1ccc(O)cc1)NC(=O)[C@H](Cc1c[nH]cn1)NC(=O)[C@@H](NC(=O)[C@H](CCSC)NC(=O)[C@H](CCCCN)NC(=O)CNC(=O)[C@H](CO)NC(=O)[C@H](Cc1ccc(O)c([N+](=O)[O-])c1)NC(C)=O)[C@@H](C)O)C(=O)N[C@@H](CC(=O)O)C(=O)N[C@@H](CC(C)C)C(=O)N[C@@H](CC(N)=O)C(=O)N[C@@H](CCCCN)C(=O)O [Peptide 11, Ac-nitroTyr-SGKMTHYFIDLN-K-OH] (Ac-[Tyr(3-NO2)]SGKMTHYFIDLNK-OH) | 100% | – | 100.0% | –
CC(=O)N[C@@H](Cc1ccc(O)c([N+](=O)[O-])c1)C(=O)N[C@@H](CO)C(=O)NCC(=O)N[C@@H](CCCCN)C(=O)N[C@@H](CCC(N)=O)C(=O)N[C@H](C(=O)N[C@@H](C)C(=O)N[C@@H](CC(C)C)C(=O)N[C@@H](CO)C(=O)N[C@@H](CC(C)C)C(=O)N[C@@H](CC(=O)O)C(=O)N[C@@H](CC(=O)O)C(=O)N[C@H](C(=O)N[C@@H](CCCCN)C(=O)O)C(C)C)C(C)C [Peptide 34, Ac-nitroTyr-SGKQVALSLDDV-K-OH] (Ac-[Tyr(3-NO2)]SGKQVALSLDDVK-OH) | – | – | 100.0% | –
CC(=O)N[C@@H](Cc1ccc(O)c([N+](=O)[O-])c1)C(=O)N[C@@H](CO)C(=O)NCC(=O)N[C@@H](CCCCN)C(=O)N[C@@H](Cc1ccc(O)cc1)C(=O)N[C@H](C(=O)N[C@@H](C)C(=O)N[C@@H](CC(C)C)C(=O)N[C@@H](CO)C(=O)N[C@@H](CC(C)C)C(=O)N[C@@H](CC(=O)O)C(=O)N[C@@H](CC(=O)O)C(=O)N[C@H](C(=O)N[C@@H](CCCCN)C(=O)O)C(C)C)C(C)C [Peptide 40, Ac-nitroTyr-SGKYVALSLDDV-K-OH] (Ac-[Tyr(3-NO2)]SGKYVALSLDDVK-OH) | – | – | 99.1% | –
